Measured values from PubChem BioAssay (NCI).
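96-well plates; 48 h exposure; 5 concentrations. Endpoints by linear interpolation between flanking doses. Not reached: highest tested concentration assigned. The concentration for full growth arrest is given as TGI.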 Where a SMILES comes first, the peptide text is derived from it. Bridges are numbered along the chain shown (N, C = ends). [ ]: non-standard residue; d: D form. The star is where a group is joined. PhAc = O=C(Cc1ccccc1)*

Columns and labels:
Test in all cases: DTP human tumour cell line panel, 48 h
NCI/ADR-RES ovarian = system: NCI/ADR-RES ovarian
MCF7 breast = system: MCF7 breast
HCT-116 colon = system: HCT-116 colon
PC-3 prostate = system: PC-3 prostate
DU-145 prostate = system: DU-145 prostate
CCRF-CEM leukemia = system: CCRF-CEM leukemia
SN12C renal = system: SN12C renal
K-562 leukemia = system: K-562 leukemia
EKVX NSCLC = system: EKVX NSCLC
SF-268 CNS = system: SF-268 CNS
SK-MEL-2 melanoma = system: SK-MEL-2 melanoma
NCI-H460 lung = system: NCI-H460 lung
HS 578T breast = system: HS 578T breast
OVCAR-4 ovarian = system: OVCAR-4 ovarian
A549 NSCLC = system: A549 NSCLC
LOX IMVI melanoma = system: LOX IMVI melanoma
TK-10 renal = system: TK-10 renal
SF-295 CNS = system: SF-295 CNS

Row | SMILES | TGI (NCI/ADR-RES ovarian) [µM] | TGI (MCF7 breast) [µM] | TGI (HCT-116 colon) [µM] | TGI (PC-3 prostate) [µM] | TGI (DU-145 prostate) [µM] | TGI (CCRF-CEM leukemia) [µM] | TGI (SN12C renal) [µM] | TGI (K-562 leukemia) [µM] | TGI (EKVX NSCLC) [µM] | TGI (SF-268 CNS) [µM] | TGI (SK-MEL-2 melanoma) [µM] | TGI (NCI-H460 lung) [µM] | TGI (HS 578T breast) [µM] | TGI (OVCAR-4 ovarian) [µM] | TGI (A549 NSCLC) [µM] | TGI (LOX IMVI melanoma) [µM] | TGI (TK-10 renal) [µM] | TGI (SF-295 CNS) [µM]
1 | N=c1oc2c(Br)cc(Br)cc2cc1C(=O)Nc1ccccn1 | > 100 | > 100 | > 100 | > 100 | > 100 | > 100 | > 100 | > 100 | > 100 | > 100 | 91.8 | > 100 | > 100 | > 100 | > 100 | > 100 | – | –
2 | Cc1ccc2c3c(cnc2n1)C(=O)OCCN3C | > 100 | > 100 | > 100 | > 100 | > 100 | > 100 | > 100 | > 100 | > 100 | > 100 | > 100 | > 100 | > 100 | > 100 | > 100 | > 100 | > 100 | > 100
3 | CC1=C(C)CC(C#N)(C#N)C(C#N)(C#N)C1 | > 10 | > 10 | > 7.32 | > 10 | > 10 | > 10 | > 10 | 9.98 | > 10 | > 10 | > 10 | > 10 | > 10 | > 10 | > 10 | > 10 | > 8.75 | > 10
4 | C=C1[C@H](OC(=O)C(C)C)[C@@H](OC(C)=O)[C@@H](OC(C)=O)C(C)(C)[C@@H]2O[C@H]2[C@@H](C)C(=O)[C@@]2(OC(C)=O)C[C@@](C)(OC(C)=O)[C@H](OC(C)=O)[C@@H]2[C@H]1OC(C)=O | > 100 | > 100 | > 100 | > 100 | > 100 | > 100 | > 100 | > 100 | > 100 | > 100 | > 100 | > 100 | > 100 | > 100 | > 100 | > 100 | > 100 | > 100
5 | Cc1nn2c(=O)c([N+](=O)[O-])c(/C=C/c3ccco3)nc2s1 | > 100 | > 100 | > 100 | > 100 | > 100 | > 100 | > 100 | > 100 | 63.7 | > 100 | > 100 | > 100 | 89.1 | > 100 | > 100 | 50.4 | > 100 | > 100
6 | O=C1OC2C(O)COC2(O)C1(O)C(C[N+](=O)[O-])c1ccc(Cl)cc1 (centres undefined) | 72 | 5 | 3.34 | 34.3 | 34.2 | 24.1 | 37.9 | 22.4 | 51.4 | 31.3 | 35.8 | 34.7 | > 52.9 | 19.4 | 37.1 | 7.35 | 25.9 | 27.9
7 | O=C1C=CC(=O)c2c1cc([N+](=O)[O-])c1ccoc21 | > 70.8 | 44.3 | 12.5 | 30.7 | > 58.6 | > 19.7 | 38.1 | > 100 | 41.1 | > 65.1 | 35.9 | 35.2 | > 60.1 | 38.6 | 40.9 | > 44.5 | 4.37 | 35.8
8 | C=CCOc1ccc(/C(N=Nc2ccc(C)cc2)=N/NC(=O)c2ccccc2)cc1OC | > 100 | 83.6 | 82.6 | > 100 | > 100 | 41.1 | > 100 | – | > 100 | > 100 | 73.3 | 48 | 87.6 | > 100 | 64.9 | 41.5 | > 100 | > 100
9 | C=CC(CBr)CCC(Br)C(C)(C)Br (centres undefined) | > 10 | > 10 | > 10 | > 10 | > 10 | > 10 | > 10 | > 10 | > 10 | > 10 | > 10 | > 10 | > 10 | > 10 | > 10 | – | > 10 | > 10
10 | Cc1cccc(NC(=S)Nc2ccc([N+](=O)[O-])cc2)n1 | > 100 | > 100 | > 100 | > 100 | > 100 | > 100 | – | > 100 | > 100 | > 100 | > 100 | > 100 | > 100 | > 100 | – | > 100 | > 100 | > 100
11 | C=C(C)CNC(=S)N(N)c1ccc(OC)cc1 | > 100 | > 100 | > 100 | > 100 | > 100 | > 100 | > 100 | > 100 | > 100 | > 100 | – | > 100 | > 100 | > 100 | > 100 | > 100 | > 100 | > 100
12 | O=C(Cc1ccccc1)N[C@@H]1COC(=O)[C@@H]2CCCN2C(=O)[C@@H]2CCCN2C1=O (PhAc-[dS]-Pro-Pro; ester 1-C) | > 100 | > 100 | > 100 | > 100 | > 100 | > 100 | > 100 | – | > 100 | > 100 | > 100 | > 100 | > 100 | > 100 | > 100 | > 100 | > 100 | > 100
13 | Cc1ccc2nc(N/N=C/c3ccc(C)s3)cc(C)c2c1 | 47.2 | 20 | 12.3 | 24.1 | 23 | – | 25.3 | > 100 | 26.1 | 35.4 | 35.3 | – | 39.2 | 24.2 | 21.1 | 14.4 | 25.2 | 21.1
